The assay concerns the target T1, ABCR K939M, K1978M and K939M/K1978M mutants (Homo sapiens, UniProt P78363, K1978M/K969M).
T1 construct: made in house
As to the kind of experiment: ATPase activity of Walker A lysine-to-methionine mutants. Particulars: 50 μM all-trans retinal. The class given is biochemical. Here is the method:
FIG. 4. Lysine to methionine Walker A mutations in ABCR abolish ATP hydrolysis but not ATP binding. A. ATPase activity was measured in the absence (white bars) or presence of 50 μM all-trans retinal (grey bars). WT, wild-type; K969M in NBD1; K1978M in NBD2; MM, K969M/K1978M double mutant; NCM, N-half co-expressed with C-half containing a K1978M mutation. B. ATP photoaffinity labeling was carried out by irradiating membranes from COS-1 cells expressing wild-type (WT), K969M, K1978M, or K969M/K1978M double mutant (MM) with 3 μM 8-azido-[α-^32P]ATp. The labeled protein was isolated with Rim3F4-Sepharose and separated on SDS gels. Left panel: gel stained with Coomassie blue. Right panel: corresponding ^32P labeling obtained with a phosphorimager. All mutant proteins were labeled with 8-azido-[α-^32P]ATP, but the double mutant bound less nucleotide.
ATPase activity was measured as described previously (Ahn, J., Wong, J. T., and Molday, R. S. (2000) J Biol Chem 275(27), 20399-405) using 50 μM [α^32P]ATP and thin layer chromatography. The all-trans retinal concentration was determined spectrophotometrically (λ383 nm=42.88 mM^−1 cm^−1). Protein concentration was estimated from the eluate before reconstitution by laser densitometry of Coomassie blue stained gels using bovine serum albumin as a standard. […]

From US20060110790A1, “Expression system for large functional proteins” (priority 2002, published 2006) come the findings set out here.

T1 sequence (P78363 whole entry K969M/K1978M): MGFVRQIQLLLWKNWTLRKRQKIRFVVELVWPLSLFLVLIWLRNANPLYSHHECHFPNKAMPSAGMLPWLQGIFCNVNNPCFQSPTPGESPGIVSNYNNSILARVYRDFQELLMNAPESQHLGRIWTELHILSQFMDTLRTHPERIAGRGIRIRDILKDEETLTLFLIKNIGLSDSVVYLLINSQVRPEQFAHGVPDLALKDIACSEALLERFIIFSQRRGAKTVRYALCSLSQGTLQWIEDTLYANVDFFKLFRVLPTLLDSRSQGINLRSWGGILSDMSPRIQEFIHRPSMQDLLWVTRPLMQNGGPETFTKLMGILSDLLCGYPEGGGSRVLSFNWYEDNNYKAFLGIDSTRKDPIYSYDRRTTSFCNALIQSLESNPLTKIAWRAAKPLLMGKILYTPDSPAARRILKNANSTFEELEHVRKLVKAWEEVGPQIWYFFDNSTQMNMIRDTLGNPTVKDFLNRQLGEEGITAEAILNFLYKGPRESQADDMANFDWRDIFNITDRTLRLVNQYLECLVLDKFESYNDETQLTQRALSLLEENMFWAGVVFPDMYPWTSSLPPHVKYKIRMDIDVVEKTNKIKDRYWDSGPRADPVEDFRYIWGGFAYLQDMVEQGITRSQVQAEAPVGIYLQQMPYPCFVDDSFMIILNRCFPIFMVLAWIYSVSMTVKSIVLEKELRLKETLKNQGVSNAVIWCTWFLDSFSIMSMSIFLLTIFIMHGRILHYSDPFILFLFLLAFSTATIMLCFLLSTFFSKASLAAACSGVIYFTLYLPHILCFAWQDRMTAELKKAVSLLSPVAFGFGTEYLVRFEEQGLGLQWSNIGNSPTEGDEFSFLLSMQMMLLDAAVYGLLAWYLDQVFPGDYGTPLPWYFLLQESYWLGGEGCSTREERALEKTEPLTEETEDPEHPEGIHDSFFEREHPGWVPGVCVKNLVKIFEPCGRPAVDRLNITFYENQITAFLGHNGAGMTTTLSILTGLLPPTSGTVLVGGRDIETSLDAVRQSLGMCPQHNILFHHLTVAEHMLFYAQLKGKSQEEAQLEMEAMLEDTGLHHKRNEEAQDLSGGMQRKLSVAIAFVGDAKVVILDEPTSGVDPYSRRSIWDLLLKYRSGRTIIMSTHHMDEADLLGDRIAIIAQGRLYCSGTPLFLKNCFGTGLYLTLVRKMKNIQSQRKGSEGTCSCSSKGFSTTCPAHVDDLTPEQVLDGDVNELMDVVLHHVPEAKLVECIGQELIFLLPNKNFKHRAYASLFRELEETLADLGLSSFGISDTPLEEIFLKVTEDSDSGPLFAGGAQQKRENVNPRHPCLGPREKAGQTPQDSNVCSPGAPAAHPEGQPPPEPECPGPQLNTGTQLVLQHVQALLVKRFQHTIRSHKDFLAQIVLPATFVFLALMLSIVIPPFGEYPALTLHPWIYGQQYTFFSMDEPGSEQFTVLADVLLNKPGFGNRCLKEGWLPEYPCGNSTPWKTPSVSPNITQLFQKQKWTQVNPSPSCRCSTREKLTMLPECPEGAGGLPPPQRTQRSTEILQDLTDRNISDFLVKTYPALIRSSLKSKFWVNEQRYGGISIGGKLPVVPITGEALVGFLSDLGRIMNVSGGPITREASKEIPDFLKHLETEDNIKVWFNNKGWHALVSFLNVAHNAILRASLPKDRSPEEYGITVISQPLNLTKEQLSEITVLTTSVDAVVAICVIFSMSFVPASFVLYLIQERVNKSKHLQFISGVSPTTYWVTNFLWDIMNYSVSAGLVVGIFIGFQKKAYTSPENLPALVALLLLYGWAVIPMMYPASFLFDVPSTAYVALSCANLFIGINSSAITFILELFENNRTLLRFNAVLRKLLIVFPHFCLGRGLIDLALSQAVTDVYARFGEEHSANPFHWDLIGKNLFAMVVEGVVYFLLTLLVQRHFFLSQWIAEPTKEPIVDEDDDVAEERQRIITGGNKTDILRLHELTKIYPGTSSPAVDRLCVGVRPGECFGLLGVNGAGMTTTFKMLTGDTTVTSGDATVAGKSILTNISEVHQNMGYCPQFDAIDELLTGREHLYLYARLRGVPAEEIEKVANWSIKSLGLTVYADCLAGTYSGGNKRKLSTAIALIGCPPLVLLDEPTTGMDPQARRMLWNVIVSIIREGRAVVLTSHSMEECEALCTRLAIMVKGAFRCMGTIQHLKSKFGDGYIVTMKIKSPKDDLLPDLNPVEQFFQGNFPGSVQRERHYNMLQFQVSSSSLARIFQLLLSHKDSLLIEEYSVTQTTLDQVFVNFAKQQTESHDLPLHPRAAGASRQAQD

For the compound `CC1=C(/C=C/C(C)=C/C=C/C(C)=C/C=O)C(C)(C)CCC1` [all-trans retinal], the “retinal activation of ATPase activity” value was “abolished retinal activation”.
